Test results reported in ChEMBL document CHEMBL1147667, “Synthesis and structure-activity relationship study of antidiabetic penta-O-galloyl-D-glucopyranose and its analogues” (2006).

System: 3T3-L1
Assay: [1-3H]-2-deoxy-D-glucose uptake in 3T3 L1 adipocytes
Format: functional, Mus musculus
Set-up: reference not given here

## O=C(O[C@H]1OC[C@@H](OC(=O)c2cc(O)c(O)c(O)c2)[C@H](OC(=O)c2cc(O)c(O)c(O)c2)[C@H]1OC(=O)c1cc(O)c(O)c(O)c1)c1cc(O)c(O)c(O)c1
  Activity: 124 Bq

## O=C(OC[C@H]1O[C@H](OC(=O)c2cc(O)c(O)c(O)c2)[C@H](OC(=O)c2cc(O)c(O)c(O)c2)[C@@H](OC(=O)c2cc(O)c(O)c(O)c2)[C@H]1OC(=O)c1cc(O)c(O)c(O)c1)c1cc(O)c(O)c(O)c1
  Activity: 22 Bq

## O=C(OC[C@H]1O[C@@H](OC(=O)c2cc(O)c(O)c(O)c2)[C@H](OC(=O)c2cc(O)c(O)c(O)c2)[C@@H](OC(=O)c2cc(O)c(O)c(O)c2)[C@H]1OC(=O)c1cc(O)c(O)c(O)c1)c1cc(O)c(O)c(O)c1
  Activity: 19 Bq

## O=C(OC[C@H]1O[C@@H](OC(=O)c2ccc(O)cc2)[C@H](OC(=O)c2ccc(O)cc2)[C@@H](OC(=O)c2ccc(O)cc2)[C@@H]1OC(=O)c1ccc(O)cc1)c1ccc(O)cc1
  Activity: 27 Bq

## O=C(O[C@H]1O[C@H](CO)[C@@H](OC(=O)c2cc(O)c(O)c(O)c2)[C@H](OC(=O)c2cc(O)c(O)c(O)c2)[C@H]1OC(=O)c1cc(O)c(O)c(O)c1)c1cc(O)c(O)c(O)c1
  Activity: 143 Bq

## O=C(OC[C@H]1O[C@H](OC(=O)c2ccc(O)c(O)c2)[C@H](OC(=O)c2ccc(O)c(O)c2)[C@@H](OC(=O)c2ccc(O)c(O)c2)[C@@H]1OC(=O)c1ccc(O)c(O)c1)c1ccc(O)c(O)c1
  Activity: 10 Bq

## O=C(OC[C@H]1O[C@@H](OC(=O)c2cc(O)c(O)c(O)c2)[C@H](OC(=O)c2cc(O)c(O)c(O)c2)[C@H](OC(=O)c2cc(O)c(O)c(O)c2)[C@@H]1OC(=O)c1cc(O)c(O)c(O)c1)c1cc(O)c(O)c(O)c1
  Activity: 34 Bq

## O=C(OC1OC[C@H](OC(=O)c2cc(O)c(O)c(O)c2)[C@H](OC(=O)c2cc(O)c(O)c(O)c2)[C@H]1OC(=O)c1cc(O)c(O)c(O)c1)c1cc(O)c(O)c(O)c1 (single isomer, unassigned; 65)
  Activity: 14 Bq

## O=C(O[C@@H]1OC[C@@H](OC(=O)c2cc(O)c(O)c(O)c2)[C@H](OC(=O)c2cc(O)c(O)c(O)c2)[C@@H]1OC(=O)c1cc(O)c(O)c(O)c1)c1cc(O)c(O)c(O)c1
  Activity: 7 Bq

## O=C(OC[C@H]1O[C@H](OC(=O)c2ccc(O)cc2)[C@H](OC(=O)c2ccc(O)cc2)[C@@H](OC(=O)c2ccc(O)cc2)[C@@H]1OC(=O)c1ccc(O)cc1)c1ccc(O)cc1
  Activity: 30 Bq

## O=C(OC[C@H]1OC[C@H](OC(=O)c2cc(O)c(O)c(O)c2)[C@@H](OC(=O)c2cc(O)c(O)c(O)c2)[C@@H]1OC(=O)c1cc(O)c(O)c(O)c1)c1cc(O)c(O)c(O)c1
  Activity: 5 Bq

## O=C(OC[C@H]1O[C@@H](OC(=O)c2cc(O)c(O)c(O)c2)C[C@@H](OC(=O)c2cc(O)c(O)c(O)c2)[C@@H]1OC(=O)c1cc(O)c(O)c(O)c1)c1cc(O)c(O)c(O)c1
  Activity: 15 Bq

## O=C(OC[C@H]1O[C@H](OC(=O)c2cc(O)c(O)c(O)c2)C[C@@H](OC(=O)c2cc(O)c(O)c(O)c2)[C@@H]1OC(=O)c1cc(O)c(O)c(O)c1)c1cc(O)c(O)c(O)c1
  Activity: 29 Bq

## O=C(OC1OC[C@H](OC(=O)c2cc(O)c(O)c(O)c2)[C@H](OC(=O)c2cc(O)c(O)c(O)c2)[C@H]1OC(=O)c1cc(O)c(O)c(O)c1)c1cc(O)c(O)c(O)c1 (single isomer, unassigned; 63)
  Activity: 23 Bq

## O=C(O)c1cc(O)c(O)c(O)c1 [GALLIC ACID]
  Activity: 31 Bq

## O=C(O[C@@H]1OC[C@@H](OC(=O)c2cc(O)c(O)c(O)c2)[C@H](OC(=O)c2cc(O)c(O)c(O)c2)[C@H]1OC(=O)c1cc(O)c(O)c(O)c1)c1cc(O)c(O)c(O)c1
  Activity: 21 Bq

## O=C(OC[C@H]1O[C@@H](OC(=O)c2cc(O)c(O)c(O)c2)[C@H](OC(=O)c2cc(O)c(O)c(O)c2)C[C@@H]1OC(=O)c1cc(O)c(O)c(O)c1)c1cc(O)c(O)c(O)c1
  Activity: 7 Bq

## O=C(O[C@@H]1OC[C@@H](OC(=O)c2cc(O)c(O)c(O)c2)[C@@H](OC(=O)c2cc(O)c(O)c(O)c2)[C@H]1OC(=O)c1cc(O)c(O)c(O)c1)c1cc(O)c(O)c(O)c1
  Activity: 12 Bq

## C[C@H]1O[C@@H](OC(=O)c2cc(O)c(O)c(O)c2)[C@H](OC(=O)c2cc(O)c(O)c(O)c2)[C@@H](OC(=O)c2cc(O)c(O)c(O)c2)[C@@H]1OC(=O)c1cc(O)c(O)c(O)c1
  Activity: 15 Bq

## O=c1oc2c(O)c(O)cc3c(=O)oc4c(O)c(O)cc1c4c23 [ELLAGIC ACID]
  Activity: 27 Bq

## O=C(OC[C@H]1O[C@H](OC(=O)c2cc(O)cc(O)c2)[C@H](OC(=O)c2cc(O)cc(O)c2)[C@@H](OC(=O)c2cc(O)cc(O)c2)[C@@H]1OC(=O)c1cc(O)cc(O)c1)c1cc(O)cc(O)c1
  Activity: 16 Bq

## O=C(OC[C@H]1O[C@H](OC(=O)c2cc(O)c(O)c(O)c2)[C@@H](OC(=O)c2cc(O)c(O)c(O)c2)[C@@H](OC(=O)c2cc(O)c(O)c(O)c2)[C@@H]1OC(=O)c1cc(O)c(O)c(O)c1)c1cc(O)c(O)c(O)c1
  Activity: 20 Bq

## O=C(OC[C@H]1O[C@H](OC(=O)c2cc(O)c(O)c(O)c2)[C@H](OC(=O)c2cc(O)c(O)c(O)c2)C[C@@H]1OC(=O)c1cc(O)c(O)c(O)c1)c1cc(O)c(O)c(O)c1
  Activity: 11 Bq

## O=C(O[C@H]1OC[C@@H](OC(=O)c2cc(O)c(O)c(O)c2)[C@H](OC(=O)c2cc(O)c(O)c(O)c2)[C@@H]1OC(=O)c1cc(O)c(O)c(O)c1)c1cc(O)c(O)c(O)c1
  Activity: 21 Bq

## O=C(OC[C@H]1O[C@@H](OC(=O)c2cc(O)cc(O)c2)[C@H](OC(=O)c2cc(O)cc(O)c2)[C@@H](OC(=O)c2cc(O)cc(O)c2)[C@@H]1OC(=O)c1cc(O)cc(O)c1)c1cc(O)cc(O)c1
  Activity: 30 Bq

## CC(=O)OC[C@H]1O[C@@H](OC(C)=O)[C@H](OC(C)=O)[C@@H](OC(C)=O)[C@@H]1OC(C)=O
  Activity: 24 Bq

## O=C(OC[C@H]1O[C@@H](OC(=O)c2ccc(O)c(O)c2)[C@H](OC(=O)c2ccc(O)c(O)c2)[C@@H](OC(=O)c2ccc(O)c(O)c2)[C@@H]1OC(=O)c1ccc(O)c(O)c1)c1ccc(O)c(O)c1
  Activity: 20 Bq

## O=C(OC[C@H]1OC(OC(=O)c2cc(O)c(O)c(O)c2)[C@H](OC(=O)c2cc(O)c(O)c(O)c2)[C@@H](OC(=O)c2cc(O)c(O)c(O)c2)[C@@H]1OC(=O)c1cc(O)c(O)c(O)c1)c1cc(O)c(O)c(O)c1 (single isomer, unassigned) [PENTAGALLOYL GLUCOSE]
  Activity: 107 Bq

## CC(=O)OC[C@H]1O[C@H](OC(C)=O)[C@H](OC(C)=O)[C@@H](OC(C)=O)[C@@H]1OC(C)=O
  Activity: 31 Bq

## O=C(OC[C@H]1O[C@H](OC(=O)c2cc(O)c(O)c(O)c2)[C@H](OC(=O)c2cc(O)c(O)c(O)c2)[C@@H](OC(=O)c2cc(O)c(O)c(O)c2)[C@@H]1OC(=O)c1cc(O)c(O)c(O)c1)c1cc(O)c(O)c(O)c1
  Activity: 145 Bq

## O=C(OC[C@H]1O[C@@H](OC(=O)c2cc(O)c(O)c(O)c2)[C@@H](OC(=O)c2cc(O)c(O)c(O)c2)[C@@H](OC(=O)c2cc(O)c(O)c(O)c2)[C@@H]1OC(=O)c1cc(O)c(O)c(O)c1)c1cc(O)c(O)c(O)c1
  Activity: 19 Bq

## OC[C@H]1O[C@H](O)[C@H](O)[C@@H](O)[C@@H]1O
  Activity: 34 Bq

## O=C(O[C@H]1O[C@H](CCl)[C@@H](OC(=O)c2cc(O)c(O)c(O)c2)[C@H](OC(=O)c2cc(O)c(O)c(O)c2)[C@H]1OC(=O)c1cc(O)c(O)c(O)c1)c1cc(O)c(O)c(O)c1
  Activity: 181 Bq

## O=C(O[C@H]1OC[C@@H](OC(=O)c2cc(O)c(O)c(O)c2)[C@@H](OC(=O)c2cc(O)c(O)c(O)c2)[C@H]1OC(=O)c1cc(O)c(O)c(O)c1)c1cc(O)c(O)c(O)c1
  Activity: 10 Bq

## COC(=O)c1cc(O)c(O)c(O)c1 [GALLIC ACID METHYL ESTER]
  Activity: 20 Bq

## C[C@H]1O[C@H](OC(=O)c2cc(O)c(O)c(O)c2)[C@H](OC(=O)c2cc(O)c(O)c(O)c2)[C@@H](OC(=O)c2cc(O)c(O)c(O)c2)[C@@H]1OC(=O)c1cc(O)c(O)c(O)c1
  Activity: 115 Bq

## O=C(OC[C@@H]1C[C@H](OC(=O)c2cc(O)c(O)c(O)c2)[C@@H](OC(=O)c2cc(O)c(O)c(O)c2)[C@@H](OC(=O)c2cc(O)c(O)c(O)c2)O1)c1cc(O)c(O)c(O)c1
  Activity: 28 Bq

## O=C(OC[C@@H]1C[C@H](OC(=O)c2cc(O)c(O)c(O)c2)[C@@H](OC(=O)c2cc(O)c(O)c(O)c2)[C@H](OC(=O)c2cc(O)c(O)c(O)c2)O1)c1cc(O)c(O)c(O)c1
  Activity: 30 Bq

## O=C(OC[C@H]1O[C@H](OC(=O)c2ccccc2)[C@H](OC(=O)c2ccccc2)[C@@H](OC(=O)c2ccccc2)[C@@H]1OC(=O)c1ccccc1)c1ccccc1
  Activity: 34 Bq

## O=C(OC[C@H]1O[C@H](OC(=O)c2cc(O)c(O)c(O)c2)[C@H](OC(=O)c2cc(O)c(O)c(O)c2)[C@H](OC(=O)c2cc(O)c(O)c(O)c2)[C@@H]1OC(=O)c1cc(O)c(O)c(O)c1)c1cc(O)c(O)c(O)c1
  Activity: 23 Bq
